Columns and labels:
[1] = biological target: T1, TDO (A172 human glioblastoma cells) (Homo sapiens, UniProt P48775); experiment: A172 Kynurenine cell based assay; details: 500 μM L-tryptophan, 48 hours, kynurenine by Erhlich's reagent
T1 construct: This assay utilised cancer cells which expressed either TDO or IDO; endogenous in cells; host or cells: A172 human glioblastoma cells
How it was run: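 A172 glioblastoma cells (30,000/well) cultured at 37° C. in phenol red-free RPMI with 10% FCS, 2 mM L-glutamine and 500 μM L-tryptophan, with or without test compound. After 48 hours, kynurenine in the supernatant was read with Erhlich's reagent (5 min) as absorbance at 490 nm.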

[2] = biological target: T2, IDO (SKOV3 human ovarian adenocarcinoma cells, IFN-γ induced) (Homo sapiens, UniProt P14902); experiment: SKOV3 Kynurenine cell based assay; details: IDO induced by 500 ng/ml IFN-γ, 500 μM L-tryptophan, 48 hours
T2 construct: IDO expression was induced in the SKOV3 cells by the addition of 500 ng/ml IFN-γ; endogenous in cells; host or cells: SKOV3 human ovarian adenocarcinoma cells, induced with IFN-γ
How it was run: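 IFN-γ (500 ng/ml) induced IDO in SKOV3 cells, seeded at 40,000/well in phenol red-free RPMI with 10% FCS, 2 mM L-glutamine and 500 μM L-tryptophan. Cells were incubated with or without compound at 37° C for 48 h. Supernatant kynurenine was detected with Ehrlich's reagent.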

[3] = biological target: Recombinant human IDO (Homo sapiens, UniProt P14902); experiment: hIDO biochemical coupled assay; details: 45 μM L-tryptophan, coupled with kynurenine formamidase
How it was run: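 Recombinant human IDO incubated in 50 mM KPO4 (pH 7.0), 0.5 mM EGTA, 0.5 mM EDTA, 0.05% Triton X100, 20 mM ascorbate, 10 μM methylene blue, 500 U/ml catalase and 50 μg/ml kynurenine formamidase. N-formylkynurenine converted to kynurenine, quantified by fluorescence after Ehrlich's reagent.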

[4] = biological target: Recombinant human TDO (Homo sapiens, UniProt P48775); experiment: hTDO biochemical coupled assay; details: 330 μM L-tryptophan, coupled with kynurenine formamidase
How it was run: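 Recombinant human TDO with 330 μM L-tryptophan in 50 mM KPO4 pH 7.0 containing EGTA, EDTA, Triton X100, ascorbate, methylene blue, catalase and kynurenine formamidase (KynB), 17 min at room temperature. Stopped with Ehrlich's reagent, 5 min, then kynurenine fluorescence read (Ex475, Em530).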

T1 sequence (P48775 whole entry): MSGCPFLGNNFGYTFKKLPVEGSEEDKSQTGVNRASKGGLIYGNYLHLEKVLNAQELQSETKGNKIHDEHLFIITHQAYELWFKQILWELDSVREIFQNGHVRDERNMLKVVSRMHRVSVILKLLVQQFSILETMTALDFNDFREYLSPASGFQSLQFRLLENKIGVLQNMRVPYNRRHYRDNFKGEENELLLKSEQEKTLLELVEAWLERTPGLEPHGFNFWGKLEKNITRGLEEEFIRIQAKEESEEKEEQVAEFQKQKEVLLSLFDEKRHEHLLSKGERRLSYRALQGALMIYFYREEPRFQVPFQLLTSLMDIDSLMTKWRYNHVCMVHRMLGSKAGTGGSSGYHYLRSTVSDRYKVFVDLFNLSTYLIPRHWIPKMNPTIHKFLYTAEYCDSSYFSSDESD
Chain of Recombinant human TDO (P48775 whole entry): as above
T2 sequence (P14902 whole entry): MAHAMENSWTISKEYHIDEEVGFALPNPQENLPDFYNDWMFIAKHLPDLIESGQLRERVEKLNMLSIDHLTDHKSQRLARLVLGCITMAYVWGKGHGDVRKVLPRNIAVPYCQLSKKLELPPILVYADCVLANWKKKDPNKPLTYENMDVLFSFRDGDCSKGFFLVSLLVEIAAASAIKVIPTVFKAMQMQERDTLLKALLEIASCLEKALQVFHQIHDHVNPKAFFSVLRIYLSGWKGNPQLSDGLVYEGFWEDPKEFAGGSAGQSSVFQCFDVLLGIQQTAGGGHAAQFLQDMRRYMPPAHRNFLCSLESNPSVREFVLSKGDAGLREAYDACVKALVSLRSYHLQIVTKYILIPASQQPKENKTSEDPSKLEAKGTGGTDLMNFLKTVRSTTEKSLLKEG
Chain of Recombinant human IDO (P14902 whole entry): as above

Compound	A172 Kynurenine cell based assay pIC50 [1]	SKOV3 Kynurenine cell based assay pIC50 [2]	hIDO biocehmical assay pIC50 [3]	hTDO biochemical assay pIC50 [4]
O=C(Cc1cccs1)N1CCC(c2c[nH]c3ccccc23)CC1 [Compound 19]	+− (+− = pIC50 <4.00)	+ (+ = pIC50 4.00-4.99)	+− (+− = pIC50 <4.00)	+− (+− = pIC50 <4.00)
COc1ccc2[nH]cc(C3CCN(S(=O)(=O)c4ccc(Br)cc4OC(F)(F)F)CC3)c2c1 [Compound 30]	+− (+− = pIC50 <4.00)	+ (+ = pIC50 4.00-4.99)	+− (+− = pIC50 <4.00)	+− (+− = pIC50 <4.00)
CS(=O)(=O)N1CCC(c2c[nH]c3ccncc23)CC1 [Compound 175]	+ (+ = pIC50 4.00-4.99)	+ (+ = pIC50 4.00-4.99)	+− (+− = pIC50 <4.00)	+− (+− = pIC50 <4.00)
O=S(=O)(c1cc(C(F)(F)F)ccc1C(F)(F)F)N1CCC(c2c[nH]c3ccc(F)cc23)CC1 [Compound 26]	+− (+− = pIC50 <4.00)	+ (+ = pIC50 4.00-4.99)	+− (+− = pIC50 <4.00)	+− (+− = pIC50 <4.00)
O=S(=O)(c1cccs1)N1CC=C(c2c[nH]c3ncccc23)CC1 [Compound 13]	+− (+− = pIC50 <4.00)	++ (++ = pIC50 5.00-5.99)	+− (+− = pIC50 <4.00)	+− (+− = pIC50 <4.00)
CS(=O)(=O)N1CC=C(c2c[nH]c3cccc(F)c23)CC1 [Compound 78]	+ (+ = pIC50 4.00-4.99)	+− (+− = pIC50 <4.00)	+− (+− = pIC50 <4.00)	+ (+ = pIC50 4.00-4.99)
CCCS(=O)(=O)N1CC=C(c2c[nH]c3cc(F)ccc23)CC1 [Compound 7]	+++ (+++ = pIC50 ≥6.00)	+ (+ = pIC50 4.00-4.99)	+− (+− = pIC50 <4.00)	++ (++ = pIC50 5.00-5.99)
CC(=O)N1CC=C(c2n[nH]c3ccccc23)CC1 [Compound 102]	+− (+− = pIC50 <4.00)	+− (+− = pIC50 <4.00)	+− (+− = pIC50 <4.00)	+ (+ = pIC50 4.00-4.99)
Cc1ccc2[nH]cc(C3CCN(S(=O)(=O)c4ccc(Br)cc4OC(F)(F)F)CC3)c2c1 [Compound 34]	+ (+ = pIC50 4.00-4.99)	+ (+ = pIC50 4.00-4.99)	+− (+− = pIC50 <4.00)	+− (+− = pIC50 <4.00)
O=C(c1cccs1)N1CCC(c2c[nH]c3ccccc23)CC1 [Compound 11]	+ (+ = pIC50 4.00-4.99)	+ (+ = pIC50 4.00-4.99)	+− (+− = pIC50 <4.00)	+− (+− = pIC50 <4.00)
Cc1cccc2c(C3CCN(C(=O)c4ccc(F)c(C(F)(F)F)c4)CC3)c[nH]c12 [Compound 54]	+ (+ = pIC50 4.00-4.99)	+ (+ = pIC50 4.00-4.99)	+− (+− = pIC50 <4.00)	+− (+− = pIC50 <4.00)
O=C(CO)N1CCC(c2c[nH]c3ccccc23)CC1 [Compound 67]	+ (+ = pIC50 4.00-4.99)	+− (+− = pIC50 <4.00)	+− (+− = pIC50 <4.00)	+− (+− = pIC50 <4.00)
COc1ccc2[nH]cc(C3CCN(C(=O)C(C)C)CC3)c2c1 [Compound 15]	+− (+− = pIC50 <4.00)	+ (+ = pIC50 4.00-4.99)	+− (+− = pIC50 <4.00)	+− (+− = pIC50 <4.00)
COCCS(=O)(=O)N1CCC(c2c[nH]c3ccccc23)CC1 [Compound 74]	++ (++ = pIC50 5.00-5.99)	+− (+− = pIC50 <4.00)	+− (+− = pIC50 <4.00)	+ (+ = pIC50 4.00-4.99)
Cc1[nH]c2ccccc2c1C1CCN(C(=O)C2CCCO2)CC1 (stereo not drawn) [Compound 17]	+− (+− = pIC50 <4.00)	+ (+ = pIC50 4.00-4.99)	+− (+− = pIC50 <4.00)	+− (+− = pIC50 <4.00)
Cc1ccc2[nH]cc(C3CCN(S(=O)(=O)c4ccc(C(C)(C)C)cc4)CC3)c2c1 [Compound 58]	+ (+ = pIC50 4.00-4.99)	+ (+ = pIC50 4.00-4.99)	+− (+− = pIC50 <4.00)	+− (+− = pIC50 <4.00)
NC(=O)N1CCC(c2c[nH]c3ccccc23)CC1 [Compound 16]	+ (+ = pIC50 4.00-4.99)	+− (+− = pIC50 <4.00)	+− (+− = pIC50 <4.00)	+− (+− = pIC50 <4.00)
COc1ccc2[nH]cc(C3=CCN(C(C)=O)CC3)c2c1 [Compound 70]	+− (+− = pIC50 <4.00)	+− (+− = pIC50 <4.00)	+− (+− = pIC50 <4.00)	+ (+ = pIC50 4.00-4.99)
Cc1ccc2[nH]cc(C3CCN(S(=O)(=O)c4ccccc4OC(F)(F)F)CC3)c2c1 [Compound 36]	+ (+ = pIC50 4.00-4.99)	++ (++ = pIC50 5.00-5.99)	+− (+− = pIC50 <4.00)	+− (+− = pIC50 <4.00)
O=C(C1CC1)N1CCC(c2c[nH]c3ccccc23)CC1 [Compound 71]	+ (+ = pIC50 4.00-4.99)	+− (+− = pIC50 <4.00)	+− (+− = pIC50 <4.00)	+− (+− = pIC50 <4.00)
CC(=O)N1CC=C(c2c[nH]c3ccc(F)cc23)CC1 [Compound 86]	++ (++ = pIC50 5.00-5.99)	+ (+ = pIC50 4.00-4.99)	+− (+− = pIC50 <4.00)	+++ (+++ = pIC50 ≥6.00)
O=S(=O)(c1cccc(OC(F)(F)F)c1)N1CCC(c2c[nH]c3ccccc23)CC1 [Compound 57]	+ (+ = pIC50 4.00-4.99)	+ (+ = pIC50 4.00-4.99)	+− (+− = pIC50 <4.00)	+− (+− = pIC50 <4.00)
Cc1[nH]c2ccccc2c1C1CCN(S(=O)(=O)c2ccc([N+](=O)[O-])cc2)CC1 [Compound 25]	+− (+− = pIC50 <4.00)	+ (+ = pIC50 4.00-4.99)	+− (+− = pIC50 <4.00)	+− (+− = pIC50 <4.00)
CC(=O)N1CCC(c2c[nH]c3ncccc23)CC1 [Compound 99]	+− (+− = pIC50 <4.00)	+ (+ = pIC50 4.00-4.99)	+− (+− = pIC50 <4.00)	+− (+− = pIC50 <4.00)

Reference: patent publication US9931347B2, “Pharmaceutical compound” (IOmet Pharma Ltd., priority 2013, dated 2018)
